pIC50: −log10 of the molar value.
Assays:
human LTA4 hydrolase = human LTA4 hydrolase (Homo sapiens (Human), UniProt P09960); assay: LTA4H Enzyme assay (peptidase, Arg-AMC cleavage); type: biochemical; conditions: LTA4H Enzyme 1 nM, Arg-AMC substrate 50 μM, room temperature 1 h, fluorescence
How it was run: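 Aminomethylcoumarin release measured fluorimetrically (380/460 nm) after 1 h at room temperature. Reaction: 1 nM final enzyme, 50 μM final Arg-AMC and compound in Tris-HCl pH 7.5 with 100 mM KCl and 0.5% BSA.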

[1] = tested on: synthesis of LTB4 in human whole blood; assay: LTB4 production inhibition assay in human whole blood (HWB); type: cell-based; conditions: heparinized human whole blood, 15 min at 37° C., Calcimycin 20 μM 30 min, plasma LTB4 by HTRF
How it was run: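 LTB4 in plasma read by HTRF immunoassay after centrifugation. Before that, compound sat with heparinized human whole blood 15 min at 37° C, followed by 30 min at 37° C with 20 μM (final) calcimycin.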

Chain of human LTA4 hydrolase (P09960 whole entry): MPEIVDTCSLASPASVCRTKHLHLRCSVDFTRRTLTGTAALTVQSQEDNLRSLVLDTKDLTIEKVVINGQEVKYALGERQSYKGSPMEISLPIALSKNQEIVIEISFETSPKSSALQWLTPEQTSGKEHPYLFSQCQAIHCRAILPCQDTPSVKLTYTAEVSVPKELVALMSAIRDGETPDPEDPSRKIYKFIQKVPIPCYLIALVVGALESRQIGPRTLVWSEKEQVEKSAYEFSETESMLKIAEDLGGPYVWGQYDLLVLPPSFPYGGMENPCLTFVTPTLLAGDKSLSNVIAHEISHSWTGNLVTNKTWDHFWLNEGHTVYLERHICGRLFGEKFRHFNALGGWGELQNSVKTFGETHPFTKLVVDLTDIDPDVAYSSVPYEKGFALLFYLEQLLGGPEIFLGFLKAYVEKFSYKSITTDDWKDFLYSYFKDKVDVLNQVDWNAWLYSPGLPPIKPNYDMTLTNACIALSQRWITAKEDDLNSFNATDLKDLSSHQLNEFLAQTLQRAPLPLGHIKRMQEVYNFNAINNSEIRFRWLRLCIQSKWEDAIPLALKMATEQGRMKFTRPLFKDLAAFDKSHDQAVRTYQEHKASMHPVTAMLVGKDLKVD

SMILES: CC(C)(C#N)C(=O)N1CC2CCC(C1)N2Cc1ccc2cc(Oc3ccc(-c4ccn[nH]4)cn3)ccc2n1 [Example 51, 2,2-Dimethyl-3-oxo-3-(8-{6-[5-(2H-pyrazol-3-yl)-pyridin-2-yloxy]-quinolin-2-ylmethyl}-3,8-diaza-bicyclo[3.2.1]oct-3-yl)-propionitrile]
- pIC50 (human LTA4 hydrolase): 9.14
- pIC50 [1]: 6.68

SMILES: C[C@@H](O)C(=O)N1CC2CCC(C1)N2Cc1ccc2cc(Oc3ccc(-c4ccn[nH]4)cn3)ccc2n1 [Example 59, (R)-2-Hydroxy-1-(8-{6-[5-(2H-pyrazol-3-yl)-pyridin-2-yloxy]-quinolin-2-ylmethyl}-3,8-diaza-bicyclo[3.2.1]oct-3-yl)-propan-1-one]
- pIC50 (human LTA4 hydrolase): 9.27
- pIC50 [1]: 6.96

SMILES: O=C(N1CCN(Cc2ccc3cc(Oc4ccc(-c5ccn[nH]5)cn4)ccc3n2)CC1)C1(O)CCC1 [Example 143, (1-Hydroxy-cyclobutyl)-(4-{6-[5-(2H-pyrazol-3-yl)-pyridin-2-yloxy]-quinolin-2-ylmethyl}-piperazin-1-yl)-methanone]
- pIC50 (human LTA4 hydrolase): 8.74
- pIC50 [1]: 6.24

SMILES: O=C(N1CCN(Cc2cn3cc(Oc4ccc(-c5ccn[nH]5)cc4)ccc3n2)CC1)C1(O)CC1 [Example 96, (1-Hydroxy-cyclopropyl)-(4-{6-[4-(2H-pyrazol-3-yl)-phenoxy]-imidazo[1,2-a]pyridin-2-ylmethyl}-piperazin-1-yl)-methanone]
- pIC50 (human LTA4 hydrolase): 8.92
- pIC50 [1]: 6.00

SMILES: O=C1CCCN1C1CCN(C[C@H]2Cc3ccc(Oc4ccc(-c5ccn[nH]5)cn4)cc3O2)CC1 [Example 63, 1-(1-{(R)-6-[5-(2H-Pyrazol-3-yl)-pyridin-2-yloxy]-2,3-dihydro-benzofuran-2-ylmethyl}-piperidin-4-yl)-pyrrolidin-2-one]
- pIC50 (human LTA4 hydrolase): 9.18
- pIC50 [1]: 6.72

SMILES: CN(Cc1ccc2cc(Oc3ccc(-c4ccn[nH]4)cn3)ccc2n1)[C@@H]1CCN(C(=O)CO)C1 [Example 100, 2-Hydroxy-1-[(R)-3-(methyl-{6-[5-(2H-pyrazol-3-yl)-pyridin-2-yloxy]-quinolin-2-ylmethyl}-amino)-pyrrolidin-1-yl]-ethanone]
- pIC50 (human LTA4 hydrolase): 9.04
- pIC50 [1]: 6.77

SMILES: CS(=O)(=O)NC1CCN(Cc2coc3cc(Oc4ccc(-c5ccn[nH]5)cn4)ccc23)CC1 [Example 105, N-(1-{6-[5-(2H-Pyrazol-3-yl)-pyridin-2-yloxy]-benzofuran-3-ylmethyl}-piperidin-4-yl)-methanesulfonamide]
- pIC50 (human LTA4 hydrolase): 9.09
- pIC50 [1]: 6.68

SMILES: NC(=O)C1CN(Cc2ccc3cc(Oc4ccc(-c5ccn[nH]5)cn4)ccc3c2)C1 [Example 2, 1-{6-[5-(2H-Pyrazol-3-yl)-pyridin-2-yloxy]-naphthalen-2-ylmethyl}-azetidine-3-carboxylic acid amide]
- pIC50 (human LTA4 hydrolase): 9.34
- pIC50 [1]: 6.68

SMILES: CC(C)(C#N)C(=O)N1CCN(Cc2ccc3cc(Oc4ccc(-c5ccn[nH]5)cn4)ccc3n2)CC1 [Example 145, 2,2-Dimethyl-3-oxo-3-(4-{6-[5-(2H-pyrazol-3-yl)-pyridin-2-yloxy]-quinolin-2-ylmethyl}-piperazin-1-yl)-propionitrile]
- pIC50 (human LTA4 hydrolase): 8.89
- pIC50 [1]: 6.29

SMILES: CC[C@@H](O)C(=O)N1CCN(Cc2ccc3cc(Oc4ccc(-c5ccn[nH]5)cn4)ccc3n2)CC1 [Example 134, (R)-2-Hydroxy-1-(4-{6-[5-(2H-pyrazol-3-yl)-pyridin-2-yloxy]-quinolin-2-ylmethyl}-piperazin-1-yl)-butan-1-one]
- pIC50 (human LTA4 hydrolase): 8.51
- pIC50 [1]: 6.39

SMILES: O=C1[C@@H](O)CCN1C1CCN(CCC2COc3cc(Oc4ccc(-c5ccn[nH]5)cn4)ccc32)CC1 (stereo partly drawn) [Example 70, (S)-3-Hydroxy-1-[1-(2-{6-[5-(2H-pyrazol-3-yl)-pyridin-2-yloxy]-2,3-dihydro-benzofuran-3-yl}-ethyl)-piperidin-4-yl]-pyrrolidin-2-one]
- pIC50 (human LTA4 hydrolase): 8.77
- pIC50 [1]: 6.54

SMILES: CNC(=O)C1CCN(Cc2coc3cc(Oc4ccc(-c5ccn[nH]5)cn4)ccc23)CC1 [Example 103, 1-{6-[5-(2H-Pyrazol-3-yl)-pyridin-2-yloxy]-benzofuran-3-ylmethyl}-piperidine-4-carboxylic acid methylamide]
- pIC50 (human LTA4 hydrolase): 9.31
- pIC50 [1]: 6.77

SMILES: C[C@@H](O)CC(=O)N1CCN(Cc2ccc3cc(Oc4ccc(-c5ccn[nH]5)cn4)ccc3n2)CC1 [Example 121, (R)-3-Hydroxy-1-(4-{6-[5-(2H-pyrazol-3-yl)-pyridin-2-yloxy]-quinolin-2-ylmethyl}-piperazin-1-yl)-butan-1-one]
- pIC50 (human LTA4 hydrolase): 8.31
- pIC50 [1]: 6.21

SMILES: O[C@@H]1CCN(Cc2ccc3cc(Oc4ncc(-c5ccn[nH]5)cn4)ccc3c2)C1 [Example 45, (R)-1-{6-[5-(2H-Pyrazol-3-yl)-pyrimidin-2-yloxy]-naphthalen-2-ylmethyl}-pyrrolidin-3-ol]
- pIC50 (human LTA4 hydrolase): 8.62
- pIC50 [1]: 6.51

SMILES: CC(C)(O)C(=O)N1CCN(CCC2COc3cc(Oc4ccc(-c5ccn[nH]5)cn4)ccc32)CC1 (stereo not shown) [Example 81, 2-Hydroxy-2-methyl-1-[4-(2-{6-[5-(2H-pyrazol-3-yl)-pyridin-2-yloxy]-2,3-dihydro-benzofuran-3-yl}-ethyl)-piperazin-1-yl]-propan-1-one]
- pIC50 (human LTA4 hydrolase): 8.66
- pIC50 [1]: 6.24

SMILES: CN(Cc1ccc2cc(Oc3ccc(-c4ccn[nH]4)cn3)ccc2n1)[C@H]1CCN(C(=O)CO)C1 [Example 101, 2-Hydroxy-1-[(S)-3-(methyl-{6-[5-(2H-pyrazol-3-yl)-pyridin-2-yloxy]-quinolin-2-ylmethyl}-amino)-pyrrolidin-1-yl]-ethanone]
- pIC50 (human LTA4 hydrolase): 8.70
- pIC50 [1]: 6.64

SMILES: CN(CCO)Cc1ccc2cc(Oc3ccc(-c4ccn[nH]4)cn3)ccc2c1 [Example 16, 2-(Methyl-{6-[5-(2H-pyrazol-3-yl)-pyridin-2-yloxy]-naphthalen-2-ylmethyl}-amino)-ethanol]
- pIC50 (human LTA4 hydrolase): 9.15
- pIC50 [1]: 6.80

SMILES: COCC(=O)N1CCN(CCc2coc3cc(Oc4ccc(-c5ccn[nH]5)cn4)ccc23)CC1 [Example 77, 2-Methoxy-1-[4-(2-{6-[5-(2H-pyrazol-3-yl)-pyridin-2-yloxy]-benzofuran-3-yl}-ethyl)-piperazin-1-yl]-ethanone]
- pIC50 (human LTA4 hydrolase): 9.06
- pIC50 [1]: 6.77

SMILES: CS(=O)(=O)N1CCN(CCC2COc3cc(Oc4ccc(-c5ccn[nH]5)cn4)ccc32)CC1 (stereo not shown) [Example 71, 1-Methanesulfonyl-4-(2-{6-[5-(2H-pyrazol-3-yl)-pyridin-2-yloxy]-2,3-dihydro-benzofuran-3-yl}-ethyl)-piperazine]
- pIC50 (human LTA4 hydrolase): 8.77
- pIC50 [1]: 6.31

SMILES: CS(=O)(=O)N1CCN(CCc2coc3cc(Oc4ccc(-c5ccn[nH]5)cn4)ccc23)CC1 [Example 74, 1-Methanesulfonyl-4-(2-{6-[5-(2H-pyrazol-3-yl)-pyridin-2-yloxy]-benzofuran-3-yl}-ethyl)-piperazine]
- pIC50 (human LTA4 hydrolase): 8.85
- pIC50 [1]: 6.46

SMILES: N#CCCNCc1ccc2cc(Oc3ccc(-c4ccn[nH]4)cn3)ccc2n1 [Example 43, 3-({6-[5-(2H-Pyrazol-3-yl)-pyridin-2-yloxy]-quinolin-2-ylmethyl}-amino)-propionitrile]
- pIC50 (human LTA4 hydrolase): 8.70
- pIC50 [1]: 6.17

SMILES: O=C([C@@H]1CCC[C@@H]1O)N1CCN(Cc2ccc3cc(Oc4ccc(-c5ccn[nH]5)cn4)ccc3n2)CC1 [Example 151, ((1R,2S)-2-Hydroxy-cyclopentyl)-(4-{6-[5-(2H-pyrazol-3-yl)-pyridin-2-yloxy]-quinolin-2-ylmethyl}-piperazin-1-yl)-methanone]
- pIC50 (human LTA4 hydrolase): 8.21
- pIC50 [1]: 6.10

SMILES: CC(C)[C@H](O)C(=O)N1CCN(Cc2ccc3cc(Oc4ccc(-c5ccn[nH]5)cn4)ccc3n2)CC1 [Example 137, (S)-2-Hydroxy-3-methyl-1-(4-{6-[5-(2H-pyrazol-3-yl)-pyridin-2-yloxy]-quinolin-2-ylmethyl}-piperazin-1-yl)-butan-1-one]
- pIC50 (human LTA4 hydrolase): 8.60
- pIC50 [1]: 6.36

SMILES: C[C@H](O)C(=O)N1CC2CCC(C1)N2Cc1ccc2cc(Oc3ccc(-c4ccn[nH]4)cn3)ccc2n1 [Example 57, (S)-2-Hydroxy-1-(8-{6-[5-(2H-pyrazol-3-yl)-pyridin-2-yloxy]-quinolin-2-ylmethyl}-3,8-diaza-bicyclo[3.2.1]oct-3-yl)-propan-1-one]
- pIC50 (human LTA4 hydrolase): 9.37
- pIC50 [1]: 7.01

SMILES: CO[C@@H](C)C(=O)N1CC2CCC(C1)N2Cc1ccc2cc(Oc3ccc(-c4ccn[nH]4)cn3)ccc2n1 [Example 53, (S)-2-Methoxy-1-(8-{6-[5-(2H-pyrazol-3-yl)-pyridin-2-yloxy]-quinolin-2-ylmethyl}-3,8-diaza-bicyclo[3.2.1]oct-3-yl)-propan-1-one]
- pIC50 (human LTA4 hydrolase): 9.18
- pIC50 [1]: 6.96

SMILES: CN(C(=O)CO)[C@H]1CCN(Cc2coc3cc(Oc4ccc(-c5ccn[nH]5)cn4)ccc23)C1 [Example 114, 2-Hydroxy-N-methyl-N-((S)-1-{6-[5-(2H-pyrazol-3-yl)-pyridin-2-yloxy]-benzofuran-3-ylmethyl}-pyrrolidin-3-yl)-acetamide]
- pIC50 (human LTA4 hydrolase): 9.25
- pIC50 [1]: 6.82

SMILES: O=C(N1CCN(CCC2COc3cc(Oc4ccc(-c5ccn[nH]5)cn4)ccc32)CC1)C1(O)CC1 (stereo not shown) [Example 90, (1-Hydroxy-cyclopropyl)-[4-(2-{6-[5-(2H-pyrazol-3-yl)-pyridin-2-yloxy]-2,3-dihydro-benzofuran-3-yl}-ethyl)-piperazin-1-yl]-methanone]
- pIC50 (human LTA4 hydrolase): 8.82
- pIC50 [1]: 6.19

SMILES: CC(C)(O)C(=O)N1CCN(Cc2ccc3cc(Oc4ncc(-c5ccn[nH]5)cn4)ccc3c2)CC1 [Example 39, 2-Hydroxy-2-methyl-1-(4-{6-[5-(2H-pyrazol-3-yl)-pyrimidin-2-yloxy]-naphthalen-2-ylmethyl}-piperazin-1-yl)-propan-1-one]
- pIC50 (human LTA4 hydrolase): 8.66
- pIC50 [1]: 6.49

SMILES: O=C(CN1CCN(Cc2coc3cc(Oc4ccc(-c5ccn[nH]5)cn4)ccc23)CC1)N1CCCC1 [Example 111, 2-(4-{6-[5-(2H-Pyrazol-3-yl)-pyridin-2-yloxy]-benzofuran-3-ylmethyl}-piperazin-1-yl)-1-pyrrolidin-1-yl-ethanone]
- pIC50 (human LTA4 hydrolase): 9.17
- pIC50 [1]: 6.77

Source: patent publication US9573957B2 (Boehringer Ingelheim International GmbH, priority 2013, dated 2017)
